Measured values taken from patent US10385024B2, “Compounds and methods for inhibiting NHE-mediated antiport in the treatment of disorders associated with fluid retention or salt overload and gastrointestinal tract disorders” (Ardelyx, Inc., priority 2012, dated 2019).

Assays:
human NHE-3 = target: T1, human NHE-3 (Homo sapiens, UniProt P48764); assay: Cell-based assay of NHE-3 activity (human NHE3 inhibition assay); details: OK cells with human NHE-3 gene, BCECF pH dye, 0-30 μM test compound; for IC50: read-out: Human NHE3 pIC50 (converted)
T1 construct: expressed in transfected cells; host or cells: Opossum kidney (OK) cells (ATCC), transfected by electroporation
T1 sequence (P48764 26-834): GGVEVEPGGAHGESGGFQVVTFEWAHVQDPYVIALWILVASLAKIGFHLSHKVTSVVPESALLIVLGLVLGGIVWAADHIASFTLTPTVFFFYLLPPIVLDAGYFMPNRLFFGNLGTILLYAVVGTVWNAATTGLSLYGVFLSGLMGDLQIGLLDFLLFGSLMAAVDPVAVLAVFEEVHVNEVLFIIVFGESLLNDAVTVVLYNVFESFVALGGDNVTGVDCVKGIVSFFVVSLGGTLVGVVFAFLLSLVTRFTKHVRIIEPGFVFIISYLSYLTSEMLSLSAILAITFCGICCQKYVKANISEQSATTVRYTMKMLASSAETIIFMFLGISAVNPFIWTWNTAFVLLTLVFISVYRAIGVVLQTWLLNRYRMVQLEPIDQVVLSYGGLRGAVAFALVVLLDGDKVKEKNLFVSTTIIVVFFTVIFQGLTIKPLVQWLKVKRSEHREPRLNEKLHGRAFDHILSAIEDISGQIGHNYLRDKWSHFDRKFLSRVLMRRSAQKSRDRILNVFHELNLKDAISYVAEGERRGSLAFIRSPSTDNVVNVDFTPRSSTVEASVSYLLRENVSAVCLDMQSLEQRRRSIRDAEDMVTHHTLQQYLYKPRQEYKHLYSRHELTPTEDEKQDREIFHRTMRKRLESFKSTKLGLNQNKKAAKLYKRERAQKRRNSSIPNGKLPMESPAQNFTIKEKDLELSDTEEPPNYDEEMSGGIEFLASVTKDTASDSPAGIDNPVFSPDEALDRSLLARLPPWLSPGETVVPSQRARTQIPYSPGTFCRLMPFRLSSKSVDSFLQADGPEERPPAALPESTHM
Method in brief: (§1)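 Opossum kidney cells electroporated with rat or human NHE-3, loaded with 5 μM BCECF-AM in NH4Cl-HEPES pH 7.4 for 30 min at RT, then acidified 10 min in Na+-free choline HEPES. Na+-dependent pH recovery rates from BCECF fluorescence, averaged over ≥2 replicates, gave pIC50.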

[1] = tested on: absorption of sodium from the intestinal lumen; assay: Inhibition of intestinal sodium absorption (urinary sodium and fecal form); assay type: in vivo, Sprague-Dawley rats; details: rat; for response vs control in vivo at 3 mg/kg: 3 mg/kg oral gavage, urine 16 h post-dose, asterisks = significance vs vehicle (*P<0.05, **P<0.01, ***P<0.001), read-out: uNa (% of vehicle); for FFS: fecal form score, scale 1 (normal pellet) to 5 (liquid fecal streams), group average, 3 mg/kg oral, 16 h post-dose, vehicle = 1
Method: Urinary sodium concentration and fecal form were measured to assess the ability of selected example compounds to inhibit the absorption of sodium from the intestinal lumen. Eight-week old Sprague-Dawley rats were purchased from Charles River Laboratories (Hollister, Calif.), were housed 2 per cage, and acclimated for at least 3 days before study initiation. Animals were fed Harlan Teklad Global 2018 rodent chow (Indianapolis, Ind.) and water ad libitum throughout the study and maintained in a standard light/dark cycle of 6 AM to 6 PM. On the day of the study, between 4 PM and 5 PM, a group of rats (n=6) were dosed via oral gavage with test compound at the dosage indicated or vehicle (water) at a volume of 10 mL/kg. After dose administration animals were placed in individual metabolic cages where they were also fed the same chow in meal form and watered ad libitum. At 16 h post-dose, the urine samples were collected and fecal form was assessed by two independent observations. Fecal forms were scored according to a common scale associated with increasing fecal water to the wettest observation in the cage's collection funnel (1, normal pellet; 2, pellet adhering to sides of collection funnel due to moisture; 3, loss of normal pellet shape; 4, complete loss of shape with a blotting pattern; 5, liquid fecal streams evident). A rat's fecal form score (FFS) was determined by averaging both observational scores for all rats within a group (n=6). In every study the vehicle group average was 1. For urine samples, the volumes were determined gravimetrically and centrifuged at 3,600×g. The supernatants were diluted 100-fold in deionized Milli-Q water then filtered through a 0.2 μm GHP Pall AcroPrep filter plate (Pall Life Sciences, Ann Arbor, Mich.) prior to analysis by ion chromatography. Ten microliters of each filtered extract was injected onto a Dionex ICS-3000 ion chromatograph system (Dionex, Sunnyvale, Calif.). Cations were separated by an isocratic method using 25 mM methanesulfonic acid as the eluent on an IonPac CS12A 2 mm i.d.×250 mm, 8 μm particle size cation exchange column (Dionex). Sodium was quantified using standards prepared from a cation standard mix containing Li^+, Na^+, NH4^+, K^+, Mg^2+, and Ca^2+ (Dionex). The mean mass of sodium urinated for every group in the 16 h period was determined with the vehicle group usually urinating approximately 21 mg sodium. The urine Na (uNa) for rats in the test groups were expressed as a percentage of the vehicle mean and the means were compared to that of the vehicle group by utilizing a one-way analysis of variance coupled with a Dunnett's post hoc test.

Rat NHE-3 [2] = target: T2, Rat NHE-3 (Rattus norvegicus, UniProt P26433); assay: Cell-based assay of NHE-3 activity (rat NHE-3 prompt inhibition); details: OK cells with rat NHE-3 gene, compound present during pH recovery; for IC50: read-out: Rat NHE3 pIC50 (prompt) (converted)
T2 construct: expressed in transfected cells; host or cells: Opossum kidney (OK) cells (ATCC), transfected by electroporation
T2 sequence (P26433 29-831): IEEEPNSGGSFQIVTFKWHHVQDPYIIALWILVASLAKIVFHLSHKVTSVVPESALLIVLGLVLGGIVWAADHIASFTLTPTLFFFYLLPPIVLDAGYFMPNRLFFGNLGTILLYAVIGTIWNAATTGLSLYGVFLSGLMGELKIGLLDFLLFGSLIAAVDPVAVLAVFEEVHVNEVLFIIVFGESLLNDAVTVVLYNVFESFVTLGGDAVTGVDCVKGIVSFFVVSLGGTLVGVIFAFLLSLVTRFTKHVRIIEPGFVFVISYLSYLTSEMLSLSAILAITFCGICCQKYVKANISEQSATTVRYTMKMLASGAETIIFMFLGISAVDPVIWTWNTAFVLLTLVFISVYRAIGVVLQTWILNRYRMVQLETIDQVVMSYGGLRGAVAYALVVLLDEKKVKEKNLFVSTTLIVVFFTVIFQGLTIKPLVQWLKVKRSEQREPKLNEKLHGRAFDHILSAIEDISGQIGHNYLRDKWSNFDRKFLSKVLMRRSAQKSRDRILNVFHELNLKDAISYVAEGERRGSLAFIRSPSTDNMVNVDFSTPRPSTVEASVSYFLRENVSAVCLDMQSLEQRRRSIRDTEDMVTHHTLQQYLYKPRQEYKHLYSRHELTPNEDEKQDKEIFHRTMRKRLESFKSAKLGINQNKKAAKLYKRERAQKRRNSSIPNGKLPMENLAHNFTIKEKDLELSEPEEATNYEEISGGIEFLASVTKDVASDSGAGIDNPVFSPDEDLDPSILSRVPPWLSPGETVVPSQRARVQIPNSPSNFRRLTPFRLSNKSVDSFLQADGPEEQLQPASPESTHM
Method in brief: as §1

Rat NHE-3 [3] = target: T2, Rat NHE-3; assay: Cell-based assay of NHE-3 activity (persistent inhibition, after washout); details: OK cells with rat NHE-3 gene, 60 min incubation, recovery initiated 40 min after compound washout; for IC50: read-out: Rat NHE3 pIC50 (persistent) (converted)
Method in brief: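 OK cells transiently expressing rat NHE-3 were exposed to 0-30 μM compound in NaCl-HEPES pH 7.4 for 60 min, then washed free of drug before NH4Cl/BCECF-AM loading and acid-loading in Na+-free choline buffer. Na+-dependent pH recovery rates (mean of ≥2 replicates) gave pIC50.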

SMILES | IC50 (human NHE-3) | IC50 (Rat NHE-3 [2]) | IC50 (Rat NHE-3 [3]) | Human NHE3 pIC50 (human NHE-3) | Rat NHE3 pIC50 (prompt) (Rat NHE-3 [2]) | Rat NHE3 pIC50 (persistent) (Rat NHE-3 [3]) | response vs control in vivo at 3 mg/kg [1] | FFS [1]
CN1Cc2c(Cl)cc(Cl)cc2[C@H](c2cccc(S(=O)(=O)NCCOCCOCCNC(=O)CCC(CCC(=O)NCCOCCOCCNS(=O)(=O)c3cccc([C@@H]4CN(C)Cc5c(Cl)cc(Cl)cc54)c3)(CCC(=O)NCCOCCOCCNS(=O)(=O)c3cccc([C@@H]4CN(C)Cc5c(Cl)cc(Cl)cc54)c3)NC(=O)N3CCN(CCOCCO)CC3)c2)C1 [Example 33] | – | – | – | C (C NHE3 pIC50 > 7) | C (C NHE3 pIC50 > 7) | C (C NHE3 pIC50 > 7) | < 35% | 2
CC(O)C(NC(=O)NC(CCC(=O)NCCOCCOCCNS(=O)(=O)c1cccc(C2CN(C)Cc3c(Cl)cc(Cl)cc32)c1)(CCC(=O)NCCOCCOCCNS(=O)(=O)c1cccc(C2CN(C)Cc3c(Cl)cc(Cl)cc32)c1)CCC(=O)NCCOCCOCCNS(=O)(=O)c1cccc(C2CN(C)Cc3c(Cl)cc(Cl)cc32)c1)C(N)=O (centres unmarked) [Example 31] | – | – | – | C (C NHE3 pIC50 > 7) | C (C NHE3 pIC50 > 7) | C (C NHE3 pIC50 > 7) | < 35% | –
CN1Cc2c(Cl)cc(Cl)cc2[C@H](c2cccc(S(=O)(=O)NCCOCCOCCNC(=O)CCC(CCC(=O)NCCOCCOCCNS(=O)(=O)c3cccc([C@@H]4CN(C)Cc5c(Cl)cc(Cl)cc54)c3)(CCC(=O)NCCOCCOCCNS(=O)(=O)c3cccc([C@@H]4CN(C)Cc5c(Cl)cc(Cl)cc54)c3)NC(=O)N[C@@H](CC(=O)O)C(=O)O)c2)C1 [Example 12, (S)-2-(3-(1,25-bis(3-((S)-6,8-dichloro-2-methyl-1,2,3,4-tetrahydroisoquinolin-4-yl)phenylsulfonamido)-13-(3-(2-(2-(2-(3-((S)-6,8-dichloro-2-methyl-1,2,3,4-tetrahydroisoquinolin-4-yl)phenylsulfonamido)ethoxy)ethoxy)ethylamino)-3-oxopropyl)-10,16-dioxo-3,6,20,23-tetraoxa-9,17-diazapentacosan-13-yl)ureido)succinic acid] | < 100 nM | < 100 nM | < 100 nM | – | – | – | 35 to 75% | 3
CN1Cc2c(Cl)cc(Cl)cc2[C@H](c2cccc(S(=O)(=O)NCCOCCOCCNC(=O)CCC(CCC(=O)NCCOCCOCCNS(=O)(=O)c3cccc([C@@H]4CN(C)Cc5c(Cl)cc(Cl)cc54)c3)(CCC(=O)NCCOCCOCCNS(=O)(=O)c3cccc([C@@H]4CN(C)Cc5c(Cl)cc(Cl)cc54)c3)NC(N)=O)c2)C1 [Example 8, N1,N7-bis(2-(2-(2-(3-((S)-6,8-dichloro-2-methyl-1,2,3,4-tetrahydroisoquinolin-4-yl)phenylsulfonamido)ethoxy)ethoxy)ethyl)-4-(3-(2-(2-(2-(3-((S)-6,8-dichloro-2-methyl-1,2,3,4-tetrahydroisoquinolin-4-yl)phenylsulfonamido)ethoxy)ethoxy)ethylamino)-3-oxopropyl)-4-ureidoheptanediamide] | < 100 nM | 100 to 10000 nM | < 100 nM | – | – | – | < 35% | –

Now from value to molecule, other results behind:

IC50 (human NHE-3) | IC50 (Rat NHE-3 [2]) | IC50 (Rat NHE-3 [3]) | Human NHE3 pIC50 (human NHE-3) | Rat NHE3 pIC50 (prompt) (Rat NHE-3 [2]) | Rat NHE3 pIC50 (persistent) (Rat NHE-3 [3]) | SMILES | response vs control in vivo at 3 mg/kg [1] | FFS [1]
< 100 nM | 100 to 10000 nM | < 100 nM | – | – | – | CN1Cc2c(Cl)cc(Cl)cc2[C@H](c2cccc(S(=O)(=O)NCCOCCOCCNC(=O)N(C)CCCN(CCCN(C)C(=O)NCCOCCOCCNS(=O)(=O)c3cccc([C@@H]4CN(C)Cc5c(Cl)cc(Cl)cc54)c3)CCCN(C)C(=O)NCCOCCOCCNS(=O)(=O)c3cccc([C@@H]4CN(C)Cc5c(Cl)cc(Cl)cc54)c3)c2)C1 [Example 47, (S)—N,N′-(15-(1-(3-((S)-6,8-dichloro-2-methyl-1,2,3,4-tetrahydroisoquinolin-4-yl)phenylsulfonamido)-11-methyl-10-oxo-3,6-dioxa-9,11-diazatetradecan-14-yl)-11,19-dimethyl-10,20-dioxo-3,6,24,27-tetraoxa-9,11,15,19,21-pentaazanonacosane-1,29-diyl)bis(3-((S)-6,8-dichloro-2-methyl-1,2,3,4-tetrahydroisoquinolin-4-yl)benzenesulfonamide)] | 35 to 75% | –
– | – | – | B (B NHE3 pIC50 5-7) | B (B NHE3 pIC50 5-7) | C (C NHE3 pIC50 > 7) | CN1Cc2c(Cl)cc(Cl)cc2[C@H](c2cccc(S(=O)(=O)NCCOCCOCCNC(=O)NCCN(CCNC(=O)NCCOCCOCCNS(=O)(=O)c3cccc([C@@H]4CN(C)Cc5c(Cl)cc(Cl)cc54)c3)CCNC(=O)NCCOCCOCCNS(=O)(=O)c3cccc([C@@H]4CN(C)Cc5c(Cl)cc(Cl)cc54)c3)c2)C1 [Example 53] | 35 to 75% | –
– | – | – | C (C NHE3 pIC50 > 7) | C (C NHE3 pIC50 > 7) | C (C NHE3 pIC50 > 7) | CN1Cc2c(Cl)cc(Cl)cc2[C@H](c2cccc(S(=O)(=O)NCCOCCOCCN(C)C(=O)CCC(N)(CCC(=O)N(C)CCOCCOCCNS(=O)(=O)c3cccc([C@@H]4CN(C)Cc5c(Cl)cc(Cl)cc54)c3)CCC(=O)N(C)CCOCCOCCNS(=O)(=O)c3cccc([C@@H]4CN(C)Cc5c(Cl)cc(Cl)cc54)c3)c2)C1 [Example 67] | > 75% | –
– | – | – | C (C NHE3 pIC50 > 7) | B (B NHE3 pIC50 5-7) | C (C NHE3 pIC50 > 7) | CCN(CCOCCOCCNC(=O)NCCCN(CCCNC(=O)NCCOCCOCCN(CC)S(=O)(=O)c1cccc([C@@H]2CN(C)Cc3c(Cl)cc(Cl)cc32)c1)CCCNC(=O)NCCOCCOCCN(CC)S(=O)(=O)c1cccc([C@@H]2CN(C)Cc3c(Cl)cc(Cl)cc32)c1)S(=O)(=O)c1cccc([C@@H]2CN(C)Cc3c(Cl)cc(Cl)cc32)c1 [Example 57] | 35 to 75% | –
– | – | – | C (C NHE3 pIC50 > 7) | B (B NHE3 pIC50 5-7) | C (C NHE3 pIC50 > 7) | CN1Cc2c(Cl)cc(Cl)cc2[C@H](c2cccc(S(=O)(=O)NCCOCCOCCNC(=O)CCC(CCC(=O)NCCOCCOCCNS(=O)(=O)c3cccc([C@@H]4CN(C)Cc5c(Cl)cc(Cl)cc54)c3)(CCC(=O)NCCOCCOCCNS(=O)(=O)c3cccc([C@@H]4CN(C)Cc5c(Cl)cc(Cl)cc54)c3)NC(=O)Cc3nnn[nH]3)c2)C1 [Example 38] | < 35% | –
